Results as given in article PMC12040169 (PLOS Biology, 2025).

Assay: in vitro
Conditions: human, hela cells, % viability

Compound | viability at 28.5 h, 10 µM [%]
CC1=NN(c2ccccc2)C(=O)/C1=C\c1ccc(Cl)cc1 [CBK067772] | 96.7
COC(=O)c1ccccc1Oc1nc(OC)cc(OC)n1 [CBK092217] | 110
CCC(C)(C)c1ccc(S(=O)(=O)N2CCCN(Cc3c(-c4ccccc4)noc3C)CC2)cc1 [CBK062888] | 92.8
CC1CCN(Cn2nc(COc3ccccc3)n(-c3ccccc3)c2=S)CC1 [CBK264247] | 97.3
N#Cc1cccc(CN2C[C@H](O)C[C@H]2c2nc(Cc3ccccc3)no2)c1 [CBK288842] | 87.5
Cc1n[nH]c(NC(=O)/C=C/C(=O)O)c1-c1ccc(F)cc1 [CBK287068] | 96.7
O=C(Nc1nc2c(s1)CCCC2)c1ccccc1 [CBK287326] | 82.9
N#Cc1cnn2c(O)cc(Cc3ccccc3)nc12 [CBK287942] | 110
O=C1c2ccc(Oc3ccc4c(c3)C(=O)N(c3ccccn3)C4=O)cc2C(=O)N1c1ccccn1 [CBK261202] | 99.3
O=C(c1ccc2c(c1)C(=O)N(N1C(=O)c3ccccc3C1=O)C2=O)c1ccc2c(c1)C(=O)N(N1C(=O)c3ccccc3C1=O)C2=O [CBK261182] | 96.4
O=C(/C=C\c1ccco1)Oc1ccc(/C=N\NC(=O)c2cncc(Br)c2)cc1 [CBK261385] | 83.2
CN1CCN(C(=O)CN(Cc2ccccc2)S(C)(=O)=O)CC1 [CBK265745] | 97.6
Cn1c(=O)c2c(nc(CN3CCN(C(=O)c4ccco4)CC3)n2CCc2ccccc2)n(C)c1=O [CBK269278] | 80.6
O=C(NCC(c1ccccc1)c1ccccc1)N1CCCCC1CO (stereo not shown) [CBK156186] | 93.5
O=[N+]([O-])c1cccc(CN2CCC(N3CCN(Cc4ccccc4)CC3)CC2)c1 [CBK264609G] | 93.5
COc1cc(CN2CCN(C/C=C/c3ccccc3)CC2)c([N+](=O)[O-])cc1OC [CBK261550] | 86.4
NC(=O)c1cccc(Cn2c3c(c4cccc(C(=O)O)c42)CCCCC3)c1 [CBK024834] | 98.6
O=C(CCc1ccc(S(=O)(=O)NC2CCCCC2)cc1)Nc1ccc2c(c1)OCCO2 [CBK266845] | 95.2
CCc1nn2c(=O)cc(CN3C(=O)COc4cccnc43)nc2s1 [CBK306599] | 88.9
Cc1ccc(-c2cnc(SCC(N)=O)n2-c2ccccc2)cc1 [CBK287757] | 113
Cc1cc(C(F)F)n2nc(C(=O)Nc3ccc(S(=O)(=O)NC45CC6CC(CC(C6)C4)C5)cc3)nc2n1 [CBK266251] | 96.2

Compound | viability at 28.5 h, 10 µM [%]
COc1ccccc1C(=O)Nc1nc2ccc(NC(C)=O)cc2s1 [CBK287303] | 88.3
N=c1c2c(-c3ccccc3)c(-c3ccccc3)oc2ncn1CCCN1CCOCC1 [CBK268484] | 92.6
CCOCc1nc2c(c(NCCn3cccn3)n1)CCN(C(C)=O)CC2 [CBK307707] | 98.3
O=C(Cn1cccn1)NC(Cc1ccsc1)c1ccccn1 (stereo not shown) [CBK285284] | 92.8
COCCNC(=O)c1ccc(-c2ccccc2)nc1NCC1CC1 [CBK106242] | 92
CCc1nn(CC(=O)N2CCCC2)c(=O)c2cc3sc(C)cc3n12 [CBK284122] | 82.9
O=C(CCSc1nc(-c2ccco2)cc(C(F)(F)F)n1)Nc1ccc2c(c1)OCO2 [CBK267627] | 104
O=C(NCC1COc2ccccc2O1)c1ccc(-c2ccccc2)nc1NCCc1ccccn1 (stereo not shown) [CBK076554] | 95.9
Cc1nc(C)c(C(=O)N2CCC(c3cc4cccnc4[nH]3)CC2)s1 [CBK284998] | 88.5
CCOC(=O)c1c(NC(=O)NCc2ccncc2)sc2c1CCC2 [CBK307591] | 81.6
Cc1cc(C)cc(OCC(=O)Nc2c(C#N)c(C)nn2C)c1 [CBK304791] | 110
Cc1nccn1CCNC(=O)c1cc(C2CCCCC2)no1 [CBK283295] | 89.6
COc1ccc(NS(=O)(=O)c2ccc(NC(=S)NC(=O)C(C)(C)C)cc2)cc1 [CBK268990] | 109
CN(CC1(C)COC1)C(=O)c1cn2cc(Cl)ccc2n1 [CBK281721] | 109
O=S(=O)(NCCCN1CCOCC1)c1cc(C(F)(F)F)cc(C(F)(F)F)c1 [CBK005796] | 91
COc1cccc(CCN(Cc2ccc(S(=O)(=O)N3CCOC3=O)cc2)Cc2cccc(OCCO)c2)c1 [CBK014806] | 98.5
CCOC(=O)c1nc(N)oc1C [CBK056636] | 85.3
CC(C)C(=O)N1CCCC1c1cc2n(n1)[C@@H](C(F)(F)F)C[C@@H](C)N2 (stereo partly shown) [CBK282966] | 106
COc1cccc2ncn(CCCn3cccn3)c(=O)c12 [CBK307094] | 89.7
NNc1nc(-c2ccc(Br)cc2)nc2ccccc12 [CBK262860] | 94.6
C=CCN(c1ccc(C(=O)O)cc1)S(=O)(=O)c1ccc(/C=C/C(=O)O)cc1 [CBK263364] | 95.8

Compound | viability at 28.5 h, 10 µM [%]
Cc1cccc(C)c1OCc1nnc(SCC(=O)c2ccc(F)cc2)n1C [CBK269715] | 91.2
CC(C)C(Nc1nc2ncn(Cc3ccccc3)c2c(=O)[nH]1)C(=O)O (stereo not shown) [CBK261685] | 91.2
Cc1nn(CCC#N)c(C)c1[C@@H]1C=C[C@@H](NC(=O)Nc2ccc(Cl)cc2)C1 [CBK288803] | 95.8
Cc1cc(=O)n(CC(=O)NC(Cc2ccncc2)[C@H]2C[C@H](O)C2)nc1C (stereo partly shown) [CBK306641] | 101
Cc1nc2ccccc2c(SCCC(=O)O)c1Cc1ccccc1 [CBK144942T] | 88.9
O=C(O)CCCn1c(=O)c2cc3c(=O)n(CCCC(=O)O)c(=O)c3cc2c1=O [CBK265748] | 93.1
Cc1nc2c(C(=O)N3CCOCC3)cnn2c(C)c1Cc1ccccc1 [CBK162201] | 113
CC(=O)c1ccc(-c2cc(Nc3ccc(O)cc3C)ncn2)s1 [CBK091052] | 115
COc1ccccc1CC(=O)N1CCC(Cc2cccc(-c3cccs3)c2)(C(N)=O)CC1 [CBK285743] | 93.3
FC(F)(F)c1ccc(CN2CCC(Oc3nccnc3OCc3cccnc3)CC2)cc1 [CBK083160T] | 91.6
Nn1c(SCCCCSc2nnc(C(F)(F)F)n2N)nnc1C(F)(F)F [CBK267946] | 98.8
Cc1cc(=O)[nH]c2c1c(=O)[nH]n2C1CCCCCC1 [CBK288381] | 80.8
O=C(Cn1c2ccccc2c2ccccc21)Sc1nc2ccccc2[nH]1 [CBK263788] | 103
CCN(CC)c1ccc(C(=O)Cn2c(=O)n(C(=O)c3cccc(S(C)(=O)=O)c3)c3ccccc32)cc1 [CBK106500] | 94.2
CCCN1CC(NS(=O)(=O)c2ccc3oc(=O)n(C)c3c2)CC1=O (stereo not shown) [CBK307664] | 92.6
COc1ccccc1-c1nnc(SCC(=O)N2CCN(c3ccccc3)CC2)[nH]1 [CBK270105] | 95.6
CO[C@@H]1CO[C@H]2[C@@H]1OC[C@@H]2NC(=O)Nc1cccc(C(F)(F)F)c1 [CBK289461] | 112
Cc1cccc(CN(CCN)C(=O)NC2C[C@H]2c2ccccc2)n1 (stereo partly shown) [CBK046220C] | 120
COc1ccccc1-c1nccnc1N1CCCC1CO (stereo not shown) [CBK036735] | 102
Cc1ccc(CCSCC(=O)O)cn1 [CBK261072] | 95.3
CC1CCc2c(C(=O)N3CCC4(CC3)NC(=O)NC4=O)csc2C1 (stereo not shown) [CBK305741] | 101

Compound | viability at 28.5 h, 10 µM [%]
Cc1sc(NC(=O)COc2ccccc2)c(C(N)=O)c1-c1ccccc1 [CBK268164] | 97.8
O=C(Nc1cnc2ccccc2c1)OCCc1cccnc1 [CBK200126] | 93.5
COc1ccc(/C=C(/NC(=O)c2cccc(Cl)c2)C(=O)Nc2ccccc2)cc1 [CBK263342] | 107
O=C(O)CCC(=O)N1N=C2C(=Cc3ccc(F)cc3)CCCC2C1c1ccc(F)cc1 (stereo not shown) [CBK296066] | 93
CC(C)(C)NCC(O)COc1cccc2c1C[C@H](O)[C@H](O)C2 (stereo partly shown) [CBK011678] | 102
Cn1nc(-c2ccc(F)cc2)n(-c2ccncc2)c1=O [CBK282294] | 96.5
O=S(=O)(Nc1ccc(C(O)(C(F)(F)F)C(F)(F)F)cc1)c1ccc(N2CCOCC2)nc1 [CBK062100] | 94.9
O=C(Nc1cccc(C(=O)O)c1)/C(=C\c1ccc2c(c1)OCO2)NC(=O)c1ccccc1Cl [CBK263746] | 96.4
CCNC(=O)N1CC2(CCN(Cc3nc4ccccc4[nH]3)CC2)c2ccccc21 [CBK126693] | 98
Cc1ccnc(N2C(=O)c3ccc(C(=O)c4ccc5c(c4)C(=O)N(c4cc(C)ccn4)C5=O)cc3C2=O)c1 [CBK263041] | 93.4
Cc1cc(C)c(S(=O)(=O)N2CCC(C(=O)Nc3ccc(C(N)=O)cc3)CC2)c(C)c1 [CBK266424] | 91.7
Cc1cc(F)c(S(N)(=O)=O)cc1NC(=O)CN1CCOCC1 [CBK051649C] | 104
C=C(C)CN1CCN(C(=O)c2c(C)oc3ccc(O)cc23)CC1 [CBK282626] | 95
COc1cc(CN2CCN(c3ccccn3)CC2)ccc1O [CBK261537] | 118
COc1ccc2occ(C(=O)c3ccc(N)cc3)c2c1 [CBK111303] | 81.8
Brc1ccc(CN2CCN3CCCC3C2C2CCCCC2)o1 (stereo not shown) [CBK021456] | 82.6
OC(CN1CCC(O)(c2ccc(F)cc2)CC1)c1ccc(-c2ccccc2)cc1 (stereo not shown) [CBK286328] | 90
Cc1ccc(N(CC(=O)N/N=C/c2ccc(Cl)cc2)S(=O)(=O)c2ccccc2)cc1 [CBK262182] | 98.3
CN(C)S(=O)(=O)c1cccc(-c2cn3cccnc3n2)c1 [CBK267580] | 71.4
CC1(OCc2ccccc2)SC(NC2CCCCCC2)=NC1=O (stereo not shown) [CBK105606] | 82.8
COCCN(Cc1cnn(C)c1)C(=O)c1cc(=O)c2cccc(F)c2[nH]1 [CBK306651] | 83.8

Same assay, conditions: human, hela cells, % viability, bulk resorufin, single well

Compound | viability at 28.5 h, 10 µM [%]
CCOc1cccc(N2C(=O)/C(=C\c3ccc(-c4ccc(C(=O)O)c(Cl)c4)o3)C(=O)NC2=S)c1 [CBK263403] | 92.1
